From US20080249142A1, “HYDRO[…] OF ME[…]” (Targacept, Inc., priority 2004, published 2008)

Experiment: physical and chemical properties of the hydroxybenzoate salts (stated, no method described)
Format: physicochemical
Conditions: solid salt, free-flowing crystalline powder

(2S)-(4E)-N-methyl-5-(5-isopropoxy-3-pyridinyl)-4-penten-2-amine p-hydroxybenzoate [Example 1]
physical and chemical stability of the salt: physically and chemically stable
